The values below come from patent US8557829B2, “Use of allopurinol for the treatment of palmar plantar erythrodysesthesia” (Nobera Pharma, S.L., priority 2006, dated 2013).

In data set [1] the test system is Patients suffering from colon cancer or breast cancer. As to the kind of experiment: Example 3: appearance of PPE under standard chemotherapy. The format is in vivo, human. As to the method:
(§1) Patients suffering from colon cancer or breast cancer were treated from January 2005 up to March 2007 with the following standard chemotherapy: • AIO protocol: high dose infusion 5FU24H+leucovorin • FOLFOX 4 protocol: day 1: oxaliplatin, 85 mg/m2, and leucovorin, 200 mg/m2, concurrently i.v., then 5-FU, 400 mg/m2 i.v. bolus followed by 600 mg/m2 continuous i.v.; day 2: leucovorin, 200 mg/m2 i.v., then 5-FU, 400 mg/m2 i.v. bolus, followed by 600 mg/m2 continuous i.v.; repeated every 2 weeks. • Oral capecitabine.
Palmar plantar erythrodysesthesia (PPE) appeared in 30% of the patients treated with 5-FU and in 66% of those treated with capecitabine.

Data set [2] shares this test system. As to the kind of experiment: Example 3: response of PPE to allopurinol cream treatment. In kind it is in vivo, human. As to the method: as §1
The cream comprising allopurinol as prepared in example 1 was topically applied by the patients 4-5 times a day to the hands and feet. In case of no response to this treatment and persistence of PPE symptoms, the dosage of chemotherapy was reduced and some cases interrupted.

The conditions of data set [3]: cited from earlier work.
In data set [4] the test system is Patients with colorectal carcinoma. As to the kind of experiment: Example 2: treatment of palmar plantar erythrodysesthesia with the allopurinol cream. The format is in vivo, human. As for the experimental part:
Patients with colorectal carcinoma were administered chemotherapy (adjuvant or palliative) following the usual protocols. As soon as the first symptoms of palmar planar erythrodysesthesia appeared after starting chemotherapy, the patients were administered the cream prepared in example 1.
The characteristics of the patients treated with the cream and the chemotherapeutic regimen that they were administered were as follow:
Patients with advanced or metastatic colorectal cancer: 8
Patients with resected stage III colon cancer: 2
• 5FU+LV bolus (Mayo protocol): 1 patient • 5FU+LV infusional (AIO protocol): 7 patients • Capecitabine monotherapy: 2 patients
The cream was applied 5 times per day, to the palms and soles, as long as the chemotherapy was applied. The frequency was reduced in between cycles and increased shortly before and during chemotherapy administration.

The target of data set [5] is T1, deoxythymidine phosphorylase (thymidine phosphorylase, TP) (Homo sapiens, UniProt P19971).
T1 sequence (P19971 11-482): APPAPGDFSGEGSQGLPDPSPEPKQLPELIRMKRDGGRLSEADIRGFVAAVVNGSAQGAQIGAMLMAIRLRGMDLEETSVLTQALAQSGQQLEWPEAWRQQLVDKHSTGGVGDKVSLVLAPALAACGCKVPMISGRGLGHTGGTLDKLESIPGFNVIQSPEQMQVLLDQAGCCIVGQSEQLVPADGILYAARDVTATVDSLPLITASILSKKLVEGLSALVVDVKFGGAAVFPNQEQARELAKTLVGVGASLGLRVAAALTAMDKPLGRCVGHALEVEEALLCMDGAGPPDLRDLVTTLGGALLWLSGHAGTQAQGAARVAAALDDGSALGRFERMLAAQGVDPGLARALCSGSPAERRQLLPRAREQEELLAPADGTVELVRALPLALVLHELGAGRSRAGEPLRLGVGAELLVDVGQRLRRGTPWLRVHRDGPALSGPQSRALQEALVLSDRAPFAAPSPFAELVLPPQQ
The note with it: Gallo et al. J Biological Chemistry 1968; cited from earlier work.

Data set [6] has as its target uridine phosphorylase (Homo sapiens, UniProt Q16831). As to conditions: Gallo et al. J Biological Chemistry 1968; cited from earlier work.
For data set [7], the system named is cancer patients. As to conditions: colon / colorectal cancer, versus fluorouracil+leucovorin; cited from earlier work.
[8] abbreviates: standard chemotherapy, before allopurinol treatment.
[9] abbreviates: 2 PPE patients on FOLFOX-4 chemotherapy.
Setting [10] is: 3% cream 4-5 times a day to hands and feet.
The mark [11] stands for this setting: 5 PPE patients on AIO chemotherapy.
Setting [12] is: 8 PPE patients on Capecitabine chemotherapy.
The mark [13] stands for this setting: all 15 PPE patients, 3% cream 4-5 times a day.
[14] abbreviates: all 15 PPE patients, 3% cream 4-5 times a day, listed as allopiirinol.

Chain of uridine phosphorylase (Q16831 whole entry): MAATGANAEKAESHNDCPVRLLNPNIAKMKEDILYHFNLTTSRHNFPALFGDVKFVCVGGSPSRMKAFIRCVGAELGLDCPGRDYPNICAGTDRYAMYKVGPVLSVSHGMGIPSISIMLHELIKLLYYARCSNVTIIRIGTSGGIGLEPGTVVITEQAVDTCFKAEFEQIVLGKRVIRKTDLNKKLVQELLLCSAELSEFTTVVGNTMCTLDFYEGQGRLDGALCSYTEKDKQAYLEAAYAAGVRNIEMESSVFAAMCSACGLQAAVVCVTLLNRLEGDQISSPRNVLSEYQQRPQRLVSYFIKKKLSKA

For the compound `O=c1[nH]cc(F)c(=O)[nH]1` [5-FU, Fluorouracil], the “PPE symptoms, % of patients” value in data set [1] (setting [8]) turned out to be 30%.
For the compound `Oc1ncnc2[nH]ncc12` [allopurinol, 1,5-dihydro-4H-pyrazolo[3,4-d]pyrimidin-4-one], in data set [2] (setting [9]), the “NR: no response, %” value is 50%; the “PR: Partial remission, %” value was 50%; the “TR: total response, %” value came out at 50%. For the same compound, in data set [2] (setting [10]), the “patients that had developed PPE in whom chemotherapy was completed as planned” value was determined as 86% and the “toxic effects associated to the topical treatment” value is “No toxics effects”. In data set [2] (setting [11]), the “CR: complete remission, %” value amounted to 80%; the “NR: no response, %” value is given as 0%; the “PR: Partial remission, %” value is 20%; the “TR: total response, %” value is given as 100%. For the same compound, in data set [2] (setting [12]), the “CR: complete remission, %” value worked out at 62.5%^; the “NR: no response, %” value worked out at 12.5%; the “PR: Partial remission, %” value was 25%; the “TR: total response, %” value was 87%. Besides, the quality of life result in data set [2] (PPE patients treated with the 3% cream) is “significantly improved”. Further, in data set [2] (setting [13]), the “CR: complete remission, %” value was 66%; the “NR: no response, %” value worked out at 13.3%^; the “PR: Partial remission, %” value was found to be 20%. The “TR: total response, %” value in data set [2] (all 15 PPE patients, 3% cream 4-5 times a day to hands and feet) came out at 86%. Besides, in data set [2] (all 15 PPE patients, 3% cream 4-5 times a day to hands and feet, listed as allopiirinol), the “TR: total response, %” value was 86.6%^. In data set [2] (setting [14]), the “CR: complete remission, %” value was determined as 66.6%^ and the “PR: Partial remission, %” value worked out at 20.0%^. For the same compound, in data set [3], the “solubility in chloroform and in ether” value was “practically insoluble”; the “solubility in dilute solutions of alkali hydroxides” value is given as “dissolves”; the “solubility in water and alcohol” value is “very slightly soluble”. Further, the “symptoms of PPE following the topical treatment” value in data set [4] (10 patients on 5FU+LV (Mayo or AIO) or capecitabine, 3% cream of example 1, 5 times per day to palms and soles) is listed as “the symptoms of PPE disappeared”. For the same compound, the completion of chemotherapy entry in data set [4] (10 patients on 5FU+LV or capecitabine, 3% cream, 5 times per day to palms and soles) is “completed without any dose reduction or delay in the treatment due to PPE”. Also, the “appearance of PPE” value in data set [4] (topical application to cancer patients being treated with chemotherapy (summary statement)) is recorded as “completely avoided the appearance of PPE”. In addition, the “inhibition of thymidine phosphorylase (TP)” value in data set [5] is “inhibits TP”. Also, the “inhibition of uridine phosphorylase” value in data set [6] is “not uridine phosphorylase”.
Take `CCCCCOC(=O)Nc1nc(=O)n([C@@H]2O[C@H](C)[C@@H](O)[C@H]2O)cc1F` [Capecitabine]: in data set [7], the “incidence of hand-foot syndrome (PPE), all grades” value was 49-60% and the “incidence of hand-foot syndrome (PPE), severe grades” value is given as 17%. Besides, the “Cumulative dosis with capecitabine until apprearauce of PPE, Median” value in data set [1] (patients who developed PPE) came to 81.000 mg. In data set [1] (setting [8]), the “PPE symptoms, % of patients” value was 66% and the “PPE symptoms, n (of patients treated)” value is recorded as 8(12). In addition, the “PPE symptoms, % of patients” value in data set [1] (standard chemotherapy, before allopurinol treatment, listed as capecitabine) is 66%.
